# The supplement of paper PMC10331698
# ± gives the standard deviation of the averaged measurements.
# Legend:
# Assay in all cases: level (log10 ratio to DMSO vehicle control); higher = higher biomarker level / cell amount than vehicle control
# Details in all cases: in DMSO
# [1] = compound: OCC(F)(F)C(F)(F)C(F)(F)C(F)(F)C(F)(F)C(F)F [1H,1H,7H-Dodecafluoro-1-heptanol]
# Protocol: (§1)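 BioMAP Diversity Plus panel of 12 human primary cell co-culture systems (3C, 4H, LPS, SAg, BT, BF4T, BE3C, CASM3C, HDF3CGF, KF3CT, MyoF, Mphg). Compounds were added 1 h before stimulation and left for 24 h (MyoF 48 h; BT 72 h for soluble read-outs or 6 d for IgG). Biomarkers were read by ELISA, cytotoxicity by SRB, PBMC viability and proliferation by Alamar Blue. Each well value was divided by the mean of 8 DMSO control wells on the same plate and log10 transformed; duplicate blinded samples were tested at 4 concentrations.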
# [2] = compound: O=C(O)CCC(F)(F)C(F)(F)C(F)(F)C(F)(F)C(F)(F)F [2H,2H,3H,3H-Perfluorooctanoic acid]
# Protocol: as §1
# [3] = compound: CCCCCCCCC(F)(F)C(F)(F)C(F)(F)C(F)(F)C(F)(F)C(F)(F)F [1-(Perfluorohexyl)octane]
# Protocol: as §1
# [4] = compound: O=S(=O)(O)C(F)(F)C(F)(F)C(F)(F)C(F)(F)C(F)(F)C(F)(F)C(F)(F)C(F)(F)F [Potassium perfluorooctanesulfonate]
# Protocol: as §1
# [5] = compound: O=C(O)C(F)(F)C(F)(F)C(F)(F)C(F)(F)C(F)(F)F [Perfluorohexanoic acid]
# Protocol: as §1
# [6] = compound: O=C(O)C(F)(F)C(F)(F)C(F)(F)C(F)(F)C(F)(F)C(F)(F)C(F)(F)C(F)(F)Cl [9-Chloro-perfluorononanoic acid]
# Protocol: as §1
# [7] = compound: N=C(N)C(F)(F)C(F)(F)C(F)(F)C(F)(F)C(F)(F)C(F)(F)C(F)(F)F [Perfluorooctanamidine]
# Protocol: as §1
Test System,level (log10) ([1]; 6700 nM),level (log10) ([1]; 20000 nM),level (log10) ([1]; 60000 nM),level (log10) ([2]; 6700 nM),level (log10) ([2]; 20000 nM),level (log10) ([2]; 60000 nM),level (log10) ([3]; 6700 nM),level (log10) ([3]; 20000 nM),level (log10) ([4]; 6700 nM),level (log10) ([4]; 20000 nM),level (log10) ([4]; 60000 nM),level (log10) ([5]; 6700 nM),level (log10) ([5]; 20000 nM),level (log10) ([5]; 60000 nM),level (log10) ([6]; 6700 nM),level (log10) ([6]; 20000 nM),level (log10) ([7]; 6700 nM),level (log10) ([7]; 20000 nM),level (log10) ([7]; 60000 nM)
CASM3C:Serum Amyloid A,-0.019 ± 0.045,-0.01 ± 0.031,-0.0275 ± 0.037,-0.0045 ± 0.0078,-0.0195 ± 0.0092,-0.0495 ± 0.028,-0.02 ± 0.0057,0.0055 ± 0.066,0.0085 ± 0.026,0.001 ± 0.03,0.0125 ± 0.057,0.0315 ± 0.012,-0.003 ± 0.0028,0.01 ± 0.047,0.001 ± 0.016,0.0285 ± 0.011,0.001 ± 0.0014,-0.0085 ± 0.018,0.053
HDF3CGF:CCL2/MCP-1,0.012 ± 0.024,0.0105 ± 0.03,0.018 ± 0.017,0.0015 ± 0.029,0.003 ± 0.0085,0.0065 ± 0.0078,-0.0185 ± 0.005,-0.004 ± 0.013,0.002 ± 0.011,-0.003 ± 0.0042,0.001 ± 0.017,-0.0145 ± 0.00071,-0.009 ± 0.03,-0.0205 ± 0.04,0.0205 ± 0.022,-0.013 ± 0.021,-0.0075 ± 0.0035,-0.005 ± 0.018,-0.068
HDF3CGF:CD54/ICAM-1,0.006 ± 0.0085,0.0015 ± 0.012,-0.003 ± 0.0099,-0.0095 ± 0.0064,-0.0215 ± 0.019,-0.036 ± 0.023,0.0025 ± 0.005,-0.0055 ± 0.037,-0.0015 ± 0.0064,-0.002 ± 0.014,-0.0525 ± 0.012,-0.009 ± 0.013,-0.017 ± 0.013,-0.019 ± 0.037,-0.077 ± 0.017,-0.112 ± 0.014,-0.0235 ± 0.0064,-0.014 ± 0.013,-0.072
HDF3CGF:CD106/VCAM-1,0.014 ± 0.0014,0.011 ± 0.0085,-0.0045 ± 0.00071,0.046 ± 0.082,0.044 ± 0.088,0.0435 ± 0.071,-0.004 ± 0.016,-0.0265 ± 0.0064,-0.032 ± 0.027,-0.0925 ± 0.018,-0.281 ± 0.026,-0.043 ± 0.04,-0.008 ± 0.023,-0.0145 ± 0.086,-0.0005 ± 0.074,-0.067 ± 0.096,-0.0215 ± 0.013,-0.132 ± 0.018,-0.214
HDF3CGF:CXCL8/IL-8,0.0045 ± 0.016,0.0035 ± 0.019,0.0055 ± 0.0035,-0.014 ± 0.014,-0.009 ± 0.014,-0.007 ± 0.025,0.0065 ± 0.0064,0.008 ± 0.0057,-0.007 ± 0.0085,-0.0065 ± 0.0035,0.004 ± 0.013,-0.003 ± 0.0057,0.006 ± 0.0014,0.005 ± 0.0071,-0.0225 ± 0.011,0.0015 ± 0.005,0.006 ± 0.0014,0.0135 ± 0.005,0.007
HDF3CGF:CXCL9/MIG,0.0015 ± 0.013,-0.022 ± 0.038,0.011 ± 0.011,-0.01 ± 0.047,-0.019 ± 0.047,-0.036 ± 0.044,0.0055 ± 0.00071,0.025 ± 0.014,-0.024 ± 0.024,-0.017 ± 0.02,-0.116 ± 0.04,0.004 ± 0.0099,0.001 ± 0.0099,-0.019 ± 0.034,-0.047 ± 0.02,-0.142 ± 0.04,0.0055 ± 0.023,-0.003 ± 0.018,0.018
HDF3CGF:CXCL10/IP-10,-0.0015 ± 0.015,-0.0055 ± 0.0021,-0.011 ± 0.018,-0.0015 ± 0.0092,0.02 ± 0.0014,-0.0205 ± 0.054,-0.02 ± 0.041,-0.03 ± 0.055,-0.0815 ± 0.03,-0.131 ± 0.06,-0.313 ± 0.044,-0.0135 ± 0.023,-0.0215 ± 0.0035,-0.0235 ± 0.013,-0.06 ± 0.027,-0.175 ± 0.0021,0.024 ± 0.014,-0.004 ± 0.034,-0.122
HDF3CGF:CXCL11/I-TAC,0.011 ± 0.0028,0 ± 0.018,-0.0015 ± 0.011,-0.0455 ± 0.12,-0.084 ± 0.11,-0.0825 ± 0.11,-0.0255 ± 0.023,-0.0365 ± 0.057,0.0005 ± 0.019,-0.0375 ± 0.015,-0.135 ± 0.0028,0.0045 ± 0.005,0.0005 ± 0.021,-0.021 ± 0.031,-0.105 ± 0.029,-0.217 ± 0.069,0.024 ± 0.025,0.0285 ± 0.029,-0.119
HDF3CGF:Collagen I,-0.0095 ± 0.011,-0.019 ± 0.027,0.0025 ± 0.08,0.0065 ± 0.079,-0.004 ± 0.078,0.0195 ± 0.14,0.006 ± 0.0085,-0.01 ± 0.1,0.0215 ± 0.0064,-0.0125 ± 0.0092,-0.0295 ± 0.061,-0.035 ± 0.033,0.02 ± 0.025,-0.0035 ± 0.054,-0.0595 ± 0.005,-0.151 ± 0.0042,-0.015 ± 0.0085,-0.025 ± 0.03,-0.021
HDF3CGF:Collagen III,-0.002 ± 0.018,-0.0065 ± 0.0078,0.0145 ± 0.015,-0.064 ± 0.055,-0.076 ± 0.033,-0.039 ± 0.061,-0.029 ± 0.042,-0.0315 ± 0.042,-0.013 ± 0.0099,-0.0525 ± 0.042,-0.106 ± 0.017,0.0515 ± 0.013,0.0305 ± 0.0092,-0.0245 ± 0.071,-0.0835 ± 0.046,-0.235 ± 0.061,-0.047 ± 0.018,-0.196 ± 0.045,-0.172
HDF3CGF:EGFR,-0.004 ± 0.025,-0.015 ± 0.03,0.0075 ± 0.011,-0.055 ± 0.025,-0.0435 ± 0.037,-0.0205 ± 0.03,-0.007 ± 0.0028,0.0125 ± 0.005,-0.0055 ± 0.019,-0.0305 ± 0.012,-0.0905 ± 0.029,0.027 ± 0.017,0.03 ± 0.021,0.003 ± 0.081,-0.135 ± 0.099,-0.2 ± 0.054,-0.017 ± 0.02,0.01 ± 0.011,-0.013
HDF3CGF:M-CSF,-0.0025 ± 0.018,-0.0055 ± 0.00071,-0.0045 ± 0.0035,-0.044 ± 0.089,-0.067 ± 0.086,-0.051 ± 0.12,-0.022 ± 0.031,-0.0025 ± 0.021,0.0165 ± 0.0078,0.012 ± 0.0014,-0.151 ± 0.018,-0.015 ± 0.059,0.013 ± 0.021,-0.006 ± 0.05,-0.058 ± 0.041,-0.089 ± 0.025,-0.017 ± 0.014,-0.0485 ± 0.018,-0.177
HDF3CGF:MMP-1,0.0115 ± 0.015,0.0105 ± 0.0021,0.012 ± 0.02,-0.009 ± 0.023,-0.0385 ± 0.05,-0.0675 ± 0.076,-0.0395 ± 0.012,-0.014 ± 0.023,-0.0075 ± 0.011,-0.0155 ± 0.0092,-0.0025 ± 0.005,0.0155 ± 0.036,0.0045 ± 0.016,-0.0145 ± 0.043,-0.0875 ± 0.005,-0.118 ± 0.011,-0.008 ± 0.0099,0.012 ± 0.0085,-0.008
HDF3CGF:PAI-I,-0.008 ± 0.0085,-0.004 ± 0.02,0.006 ± 0.047,0.0145 ± 0.016,-0.004 ± 0.011,-0.0085 ± 0.0078,0.0005 ± 0.016,0.0165 ± 0.0021,0.0485 ± 0.0064,0.011 ± 0.021,-0.181 ± 0.18,0.0415 ± 0.044,-0.0095 ± 0.021,0.025 ± 0.075,0.0685 ± 0.033,0.0245 ± 0.015,-0.0225 ± 0.013,0.02 ± 0.014,-0.233
HDF3CGF:Proliferation 72hr,0.0045 ± 0.066,0 ± 0.072,0.003 ± 0.044,-0.002 ± 0.054,0.007 ± 0.033,0.023 ± 0.018,0.0085 ± 0.077,0.0325 ± 0.005,0.13 ± 0.079,0.155 ± 0.09,-0.732 ± 0.039,0.04 ± 0.0014,0.015 ± 0.034,0.0305 ± 0.037,0.101 ± 0.022,-0.081 ± 0.054,-0.0255 ± 0.043,-0.0515 ± 0.1,-0.564
